biological target: T1, human Cav3.2 channels (Homo sapiens, UniProt O95180); test: T-type calcium blocking action: intracellular calcium (Fluo-4 AM fluorescence) in HEK293 cells steadily expressing human Cav3.2 channels; type: cell-based; settings: HEK293 cells expressing human Cav3.2; KCl-stimulated calcium influx, Fluo-4 fluorescence; Tables 1 to 3
T1 construct: human Cav3.2 channel ORF (Open Reading Frame) gene; expressed in transfected cells; host or cells: HEK293 cells (ATCC No. CRL-1573), pcDNA3.1(+) plasmid
T1 sequence (O95180 whole entry): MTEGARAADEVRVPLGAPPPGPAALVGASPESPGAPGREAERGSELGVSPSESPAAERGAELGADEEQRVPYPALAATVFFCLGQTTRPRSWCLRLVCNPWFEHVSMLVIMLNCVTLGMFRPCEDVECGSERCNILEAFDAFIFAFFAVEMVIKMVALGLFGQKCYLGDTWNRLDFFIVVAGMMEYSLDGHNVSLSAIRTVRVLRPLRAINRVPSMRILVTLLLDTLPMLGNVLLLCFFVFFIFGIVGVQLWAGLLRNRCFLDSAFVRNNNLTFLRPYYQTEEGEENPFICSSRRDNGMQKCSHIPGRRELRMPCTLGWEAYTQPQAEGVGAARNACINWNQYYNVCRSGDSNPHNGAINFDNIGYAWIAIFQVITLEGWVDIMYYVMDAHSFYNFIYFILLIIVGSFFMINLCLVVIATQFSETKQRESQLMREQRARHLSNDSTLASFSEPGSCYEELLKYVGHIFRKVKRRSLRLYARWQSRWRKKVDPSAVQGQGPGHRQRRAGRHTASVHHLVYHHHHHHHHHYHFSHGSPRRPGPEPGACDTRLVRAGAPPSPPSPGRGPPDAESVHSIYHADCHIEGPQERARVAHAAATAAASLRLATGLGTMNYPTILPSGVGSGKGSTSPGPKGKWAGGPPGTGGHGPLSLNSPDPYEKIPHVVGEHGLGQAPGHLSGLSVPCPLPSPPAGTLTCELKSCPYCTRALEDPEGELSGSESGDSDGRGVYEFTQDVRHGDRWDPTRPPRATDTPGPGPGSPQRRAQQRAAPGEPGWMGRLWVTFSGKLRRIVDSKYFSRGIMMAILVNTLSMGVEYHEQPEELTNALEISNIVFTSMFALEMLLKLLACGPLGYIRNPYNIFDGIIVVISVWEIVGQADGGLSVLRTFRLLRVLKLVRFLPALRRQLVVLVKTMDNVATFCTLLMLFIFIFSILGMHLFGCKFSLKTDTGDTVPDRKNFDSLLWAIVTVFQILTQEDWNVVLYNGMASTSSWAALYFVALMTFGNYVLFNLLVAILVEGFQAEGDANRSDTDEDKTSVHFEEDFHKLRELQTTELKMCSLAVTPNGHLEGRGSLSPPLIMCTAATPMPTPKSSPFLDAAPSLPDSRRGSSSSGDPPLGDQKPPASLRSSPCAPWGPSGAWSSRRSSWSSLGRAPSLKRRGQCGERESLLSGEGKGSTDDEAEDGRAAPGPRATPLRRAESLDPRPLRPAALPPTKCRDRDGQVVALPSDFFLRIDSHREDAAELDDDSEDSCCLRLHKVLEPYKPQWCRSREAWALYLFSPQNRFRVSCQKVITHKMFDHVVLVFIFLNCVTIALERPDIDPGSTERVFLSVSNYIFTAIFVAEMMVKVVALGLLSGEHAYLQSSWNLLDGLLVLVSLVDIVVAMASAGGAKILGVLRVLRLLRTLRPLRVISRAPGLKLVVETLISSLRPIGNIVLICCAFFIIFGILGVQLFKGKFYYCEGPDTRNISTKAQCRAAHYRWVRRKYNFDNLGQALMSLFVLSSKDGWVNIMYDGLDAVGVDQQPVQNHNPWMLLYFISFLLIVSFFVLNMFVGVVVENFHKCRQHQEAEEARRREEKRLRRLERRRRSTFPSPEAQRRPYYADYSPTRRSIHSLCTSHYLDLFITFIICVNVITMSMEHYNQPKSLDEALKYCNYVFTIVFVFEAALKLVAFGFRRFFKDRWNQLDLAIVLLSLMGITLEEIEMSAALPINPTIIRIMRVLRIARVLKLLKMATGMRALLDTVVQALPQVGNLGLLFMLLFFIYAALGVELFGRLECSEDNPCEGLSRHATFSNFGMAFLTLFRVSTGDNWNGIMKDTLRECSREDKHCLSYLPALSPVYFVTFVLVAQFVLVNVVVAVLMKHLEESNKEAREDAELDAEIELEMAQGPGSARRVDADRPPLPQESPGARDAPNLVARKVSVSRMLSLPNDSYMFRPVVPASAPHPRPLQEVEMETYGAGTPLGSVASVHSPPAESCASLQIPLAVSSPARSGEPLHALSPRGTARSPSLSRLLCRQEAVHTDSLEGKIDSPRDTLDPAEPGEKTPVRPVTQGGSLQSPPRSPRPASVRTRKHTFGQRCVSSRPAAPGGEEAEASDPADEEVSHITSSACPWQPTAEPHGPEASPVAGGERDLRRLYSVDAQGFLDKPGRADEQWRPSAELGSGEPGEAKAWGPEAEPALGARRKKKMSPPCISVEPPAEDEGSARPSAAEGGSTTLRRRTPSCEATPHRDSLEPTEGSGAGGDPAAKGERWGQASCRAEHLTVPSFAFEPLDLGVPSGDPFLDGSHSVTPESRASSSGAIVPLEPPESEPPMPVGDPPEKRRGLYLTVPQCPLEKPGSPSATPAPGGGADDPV
Excerpt: T-Type Calcium Blocking Action
(1) Construction of Cells Steadily Expressing Human Cav3.2 Channels
A sequence obtained by adding HindIII site and a kozak sequence (GCCACC) to the 5′-side of human Cav3.2 channel ORF (Open Reading Frame) gene and adding a KpnI site to the 3′-side of the gene, was incorporated into pcDNA3.1(+) (Thermo Fisher Scientific, #V790-20), and the plasmid was introduced into HEK293 cells (ATCC No. CRL-1573) according to the protocol of FuGENE (registered trademark) HD Transfection Reagent (Promega, #E2311).
(2) Method for Measuring Intracellular Calcium Concentration
The cells steadily expressing human Cav3.2 channels produced by testing method (1) were seeded on a 96-well plate (Dulbecco's modified Eagle medium (DMEM) medium containing 10% fetal bovine serum (FBS) was used as a medium). The cells were seeded and cultured for 48 hours under conditions of 37° C. and 5% CO2. Thereafter, the cells were washed with buffer A in order to remove the medium. Each well was treated with 80 μL of a fluorescent dye solution produced by mixing 22 μg of a fluorescent calcium indicator, Fluo-4 AM (Dojindo Laboratories, #F311), 20 μL of DMSO, 1 μL of 10% Pluronic F-127 (Thermo Fisher Scientific, #P6866), and 4 mL of buffer A. The cells were allowed to stand for 45 minutes at room temperature under light-shielded conditions, and then washed with buffer B in order to completely replace the solution. 70 μL of DMSO having the same concentration as that of a test compound as a negative control and 70 μL of a mixture containing 1 μM of a known blocker RQ-00311651 and the test compound as a positive control were each added to each well in a form of being contained in the buffer B. The test compound was dissolved in 100% DMSO and added at a final concentration of 0.1%. Then, the cells were further allowed to stand at room temperature under light-shielded conditions for 15 minutes and placed in a microplate reader EnVision (PerkinElmer). Background fluorescence was measured in each well, and then a 5 μg/mL grammicidin solution was added to buffer B at 10 μL/well. After 90 seconds, baseline fluorescence was measured. Thereafter, 83.8 mM KCl was added to buffer B at 20 μL/well, and an increase in fluorescence caused by calcium influx generated by the stimulus was measured for 10 seconds. A blocking percentage was calculated from a maximum fluorescence increase value from a baseline, a logarithmic value of a compound concentration and blockery activity were plotted, and thereby an IC50 value was calculated. In the measurement, fluorescence at 510 nm that was emitted when the cells were irradiated with excitation light at 485 nm was observed.
Buffer A: 140 mM NaCl, 5 mM KCl, 1 mM MgCl2, 0.5 mM CaCl2, 10 mM Glucose, 10 mM HEPES, pH 7.3
Buffer B: 137.9 mM Choline-Cl, 4.1 mM KCl, 1 mM MgCl2, 0.5 mM CaCl2, 10 mM Glucose, 10 mM HEPES, pH 7.3

| SMILES | IC50 [µM] |
| --- | --- |
| CC(C)Cc1ccc(C(C)C(=O)N[C@@H]2CCN(c3cncc(C(F)(F)F)c3)C2)cc1 (stereo partly drawn) [Example 17, 2-(4-Isobutylphenyl)-N—((R)-1-(5-(trifluoromethyl)pyridin-3-yl)pyrrolidin-3-yl)propanamide] | 0.38 |
| Cc1ncc(N2CC[C@@H](NC(=O)Cc3ccc(C4CC4)cc3)C2)cc1C(F)(F)F [Example 18, (R)-2-(4-cyclopropylphenyl)-N-(1-(6-methyl-5-(trifluoromethyl)pyridin-3-yl)pyrrolidin-3-yl)acetamide] | 0.09 |
| CC(C)(O)c1cncc(N2CC[C@@H](NC(=O)Cc3ccc(C4CC4)cc3)C2)c1 [Example 19, (R)-2-(4-cyclopropylphenyl)-N-(1-(5-(2-hydroxypropan-2-yl)pyridin-3-yl)pyrrolidin-3-yl)acetamide] | 3.5 |
| NC(=O)C1(NC(=O)Cc2ccc(C3CC3)cc2)CCN(c2cncc(C(F)(F)F)c2)C1 (stereo not shown) [Example 21, 3-(2-(4-cyclopropylphenyl)acetamido)-1-(5-(trifluoromethyl)pyridin-3-yl)pyrrolidine-3-carboxyamide] | 1.2 |
| O=C(Cc1ccc(O)cc1)N[C@@H]1CCN(c2cncc(C(F)(F)F)c2)C1 [Example 22, (R)-2-(4-hydroxyphenyl)-N-(1-(5-(trifluoromethyl)pyridin-3-yl)pyrrolidin-3-yl)acetamide] | 1.6 |
| O=C(Cc1ccc(N2CCS(=O)(=O)CC2)cc1)N[C@@H]1CCN(c2cncc(C(F)(F)F)c2)C1 [Example 23, (R)-2-(4-(1,1-dioxidethiomorpholino)phenyl)-N-(1-(5-(trifluoromethyl)pyridin-3-yl)pyrrolidin-3-yl)acetamide] | 0.15 |
| O=C(N[C@@H]1CCN(c2cncc(C(F)(F)F)c2)C1)C1(c2ccc(Cl)cc2)CC1 [Example 24, (R)-1-(4-chlorophenyl)-N-(1-(5-(trifluoromethyl)pyridin-3-yl)pyrrolidin-3-yl)cyclopropane-1-carboxyamide] | 0.72 |
| O=C(N[C@@H]1CCN(c2cncc(C(F)(F)F)c2)C1)C(O)c1ccc(Br)cc1 (stereo partly drawn) [Example 25, 2-(4-Bromophenyl)-2-hydroxy-N—((R)-1-(5-(trifluoromethyl)pyridin-3-yl)pyrrolidin-3-yl)acetamide] | 2 |
| C[Si](C)(C)c1ccc(CC(=O)N[C@@H]2CCN(c3cncc(C(F)(F)F)c3)C2)cc1 [Example 26, (R)—N-(1-(5-(trifluoromethyl)pyridin-3-yl)pyrrolidin-3-yl)-2-(4-(trimethylsilyl)phenyl)acetamide] | 0.15 |
| CC(C)(O)COc1ccc(CC(=O)N[C@@H]2CCN(c3cncc(C(F)(F)F)c3)C2)cc1 [Example 27, (R)-2-(4-(2-hydroxy-2-methylpropoxy)phenyl)-N-(1-(5-(trifluoromethyl)pyridin-3-yl)pyrrolidin-3-yl)acetamide] | 0.7 |
| O=C(Cc1ccc(C2CC2)cc1)N[C@H]1CN(c2cncc(C(F)(F)F)c2)C[C@@H]1F [Example 28, 2-(4-cyclopropylphenyl)-N-((3S,4S)-4-fluoro-1-(5-(trifluoromethyl)pyridin-3-yl)pyrrolidin-3-yl)acetamide] | 0.2 |
| O=C(N[C@@H]1CCN(c2cncc(C(F)(F)F)c2)C1)[C@H]1C[C@@H]1c1nc2cc(F)c(F)cc2o1 [Example 45] | 0.011 |

More lines, now with the values ahead:

| IC50 [µM] | SMILES |
| --- | --- |
| 0.04 | CN(C)c1ccc(CC(=O)N[C@@H]2CCN(c3cncc(C(F)(F)F)c3)C2)cc1 [Example 29, (R)-2-(4-(dimethylamino)phenyl)-N-(1-(5-(trifluoromethyl)pyridin-3-yl)pyrrolidin-3-yl)acetamide] |
| 0.65 | O=C(Cc1ccc([N+](=O)[O-])cc1)N[C@@H]1CCN(c2cncc(C(F)(F)F)c2)C1 [Example 30, (R)-2-(4-nitrophenyl)-N-(1-(5-(trifluoromethyl)pyridin-3-yl)pyrrolidin-3-yl)acetamide] |
| 0.21 | CC(C)Cc1ccc([C@H](C)C(=O)N[C@@H]2CCN(c3cncc(C(F)(F)F)c3)C2)cc1 [Example 31, (S)-2-(4-isobutylphenyl)-N—((R)-1-(5-(trifluoromethyl)pyridin-3-yl)pyrrolidin-3-yl)propanamide] |
| 0.15 | O=C(Cc1ccc(C(F)(F)F)c(F)c1)N[C@@H]1CCN(c2cncc(C(F)(F)F)c2)C1 [Example 32, (R)-2-(3-fluoro-4-(trifluoromethyl)phenyl)-N-(1-(5-(trifluoromethyl)pyridin-3-yl)pyrrolidin-3-yl)acetamide] |
| 1 | Nc1ccc(CC(=O)N[C@@H]2CCN(c3cncc(C(F)(F)F)c3)C2)cc1 [Example 33, (R)-2-(4-aminophenyl)-N-(1-(5-(trifluoromethyl)pyridin-3-yl)pyrrolidin-3-yl)acetamide] |
| 0.24 | O=C(N[C@@H]1CCN(c2cncc(C(F)(F)F)c2)C1)C1(c2ccc(C(F)(F)F)cc2)CC1 [Example 34, (R)-1-(4-(trifluoromethyl)phenyl)-N-(1-(5-(trifluoromethyl)pyridin-3-yl)pyrrolidin-3-yl)cyclopropane-1-carboxyamide] |
| 0.63 | CC(=O)Nc1ccc(CC(=O)N[C@@H]2CCN(c3cncc(C(F)(F)F)c3)C2)cc1 [Example 35, (R)-2-(4-acetamidophenyl)-N-(1-(5-(trifluoromethyl)pyridin-3-yl)pyrrolidin-3-yl)acetamide] |
| 0.98 | N#CC1(NC(=O)Cc2ccc(C3CC3)cc2)CCN(c2cncc(C(F)(F)F)c2)C1 (stereo not shown) [Example 36, N-(3-cyano-1-(5-(trifluoromethyl)pyridin-3-yl)pyrrolidin-3-yl)-2-(4-cyclopropylphenyl)acetamide] |
| 0.027 | COC(=O)C1(NC(=O)Cc2ccc3cc[nH]c3c2)CCN(c2cncc(C(F)(F)F)c2)C1 (stereo not shown) [Example 37, Methyl 3-(2-(1H-indol-6-yl)acetamido)-1-(5-(trifluoromethyl)pyridin-3-yl)pyrrolidine-3-carboxylate] |
| 0.035 | COC(=O)C1(NC(=O)Cc2ccc(C(F)(F)F)cc2)CCN(c2cncc(C(F)(F)F)c2)C1 (stereo not shown) [Example 38, Methyl 3-(2-(4-(trifluoromethyl)phenyl)acetamido)-1-(5-(trifluoromethyl)pyridin-3-yl)pyrrolidine-3-carboxylate] |
| 0.022 | O=C(N[C@@H]1CCN(c2cncc(C(F)(F)F)c2)C1)[C@H]1C[C@@H]1c1nc2ccccc2o1 [Example 39, (1S,2S)-2-(benzo[d]oxazol-2-yl)-N—((R)-1-(5-(trifluoromethyl)pyridin-3-yl)pyrrolidin-3-yl)cyclopropane-1-carboxyamide] |
| 0.3 | O=C(Cc1ccc(N2CCOCC2)cc1)N[C@@H]1CCN(c2nc(C(F)(F)F)cs2)C1 [Example 40, (R)-2-(4-morpholinophenyl)-N-(1-(4-(trifluoromethyl)thiazol-2-yl)pyrrolidin-3-yl)acetamide] |
| 0.025 | COC(=O)C1(NC(=O)Cc2ccc(N3CCOCC3)cc2)CCN(c2cncc(C(F)(F)F)c2)C1 (stereo not shown) [Example 41, Methyl 3-(2-(4-morpholinophenyl)acetamido)-1-(5-(trifluoromethyl)pyridin-3-yl)pyrrolidine-3-carboxylate] |
| 0.25 | O=C(Cc1ccc(N2CCOCC2)cc1)N[C@@H]1CCN(c2ccc(C(F)(F)F)nc2)C1 [Example 42, (R)-2-(4-morpholinophenyl)-N-(1-(6-(trifluoromethyl)pyridin-3-yl)pyrrolidin-3-yl)acetamide] |
| 0.19 | CCC1(NC(=O)Cc2ccc(C3CC3)cc2)CCN(c2cncc(C(F)(F)F)c2)C1 (stereo not shown) [Example 43, 2-(4-cyclopropylphenyl)-N-(3-ethyl-1-(5-(trifluoromethyl)pyridin-3-yl)pyrrolidin-3-yl)acetamide] |
| 0.014 | O=C(N[C@@H]1CCN(c2cncc(C(F)(F)F)c2)C1)[C@H]1C[C@@H]1c1nc2ccc(F)cc2o1 [Example 44, (1S,2S)-2-(6-fluorobenzo[d]oxazol-2-yl)-N—((R)-1-(5-(trifluoromethyl)pyridin-3-yl)pyrrolidin-3-yl)cyclopropane-1-carboxyamide] |

Reference: patent US20220226299A1 (NIPPON CHEMIPHAR CO., LTD., priority 2019, published 2022)
